# Data from PubChem BioAssay AID256 (DTP/NCI, 2004).
# Values joined by “and” are separate entries in the source; they are usually repeats but may differ in a detail not shown here. Equal entries are not always repeated. Inconclusive results and toxic doses are left out.
# Test system: CD2F1 mice, L1210 leukemia ip, survival T/C
# Test: NCI In Vivo Anticancer Drug Screen. Data for tumor model L1210 Leukemia (intraperitoneal) in CD2F1 (CDF1) mice
# Conditions: higher = longer survival
# How it was run: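 Antitumor effect is scored in animals hosting a serially transplanted tumor. Values compare compound-dosed animals against vehicle-only controls as a simple quotient.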
# [1] = endpoint: mean survival time, dose: 25.0 mg/kg/injection, schedule: Q01DX009 (ip), vehicle: saline with Tween-80
# [2] = endpoint: mean survival time, dose: 50.0 mg/kg/injection, schedule: Q01DX009 (ip), vehicle: saline with Tween-80
# [3] = endpoint: mean survival time, dose: 100.0 mg/kg/injection, schedule: Q01DX009 (ip), vehicle: saline with Tween-80
# [4] = endpoint: mean survival time, dose: 200.0 mg/kg/injection, schedule: Q01DX009 (ip), vehicle: saline with Tween-80
# [5] = endpoint: mean survival time, dose: 100.0 mg/kg/injection, schedule: Q04DX003 (ip), vehicle: saline with Tween-80
# [6] = endpoint: mean survival time, dose: 200.0 mg/kg/injection, schedule: Q04DX003 (ip), vehicle: saline with Tween-80
# [7] = endpoint: mean survival time, dose: 400.0 mg/kg/injection, schedule: Q04DX003 (ip), vehicle: saline with Tween-80
# [8] = endpoint: mean survival time, dose: 12.5 mg/kg/injection, schedule: Q04DX002 (ip), vehicle: saline with Tween-80
# [9] = endpoint: mean survival time, dose: 25.0 mg/kg/injection, schedule: Q04DX002 (ip), vehicle: saline with Tween-80
# [10] = endpoint: mean survival time, dose: 100.0 mg/kg/injection, schedule: Q04DX002 (ip), vehicle: saline with Tween-80
# [11] = endpoint: mean survival time, dose: 200.0 mg/kg/injection, schedule: Q04DX002 (ip), vehicle: saline with Tween-80
# [12] = endpoint: mean survival time, dose: 400.0 mg/kg/injection, schedule: Q04DX002 (ip), vehicle: saline with Tween-80
# [13] = endpoint: mean survival time, dose: 100.0 mg/kg/injection, schedule: Q01DX001 (ip), vehicle: saline with Tween-80
# [14] = endpoint: mean survival time, dose: 200.0 mg/kg/injection, schedule: Q01DX001 (ip), vehicle: saline with Tween-80
# [15] = endpoint: mean survival time, dose: 400.0 mg/kg/injection, schedule: Q01DX001 (ip), vehicle: saline with Tween-80
# [16] = endpoint: mean survival time, dose: 400.0 mg/kg/injection, schedule: Q01DX009 (ip), vehicle: saline with Tween-80
structure (smiles),measurement,setting,value
CCCC(CCC)=NN=C(CCC)CCC,T/C,"endpoint: mean survival time, dose: 25.0 mg/kg/injection, schedule: Q01DX005 (ip), vehicle: saline",97 % of control
same,T/C,[1],95 % of control
same,T/C,"endpoint: mean survival time, dose: 50.0 mg/kg/injection, schedule: Q01DX005 (ip), vehicle: saline",97 % of control
same,T/C,[2],106 % of control
same,T/C,"endpoint: mean survival time, dose: 50.0 mg/kg/injection, schedule: Q04DX002 (ip), vehicle: saline + alcohol",95 % of control
same,T/C,"endpoint: mean survival time, dose: 100.0 mg/kg/injection, schedule: Q01DX005 (ip), vehicle: saline",105 % of control
same,T/C,[3],91 % of control
same,T/C,"endpoint: mean survival time, dose: 100.0 mg/kg/injection, schedule: Q04DX002 (ip), vehicle: saline + alcohol",92 % of control
same,T/C,"endpoint: mean survival time, dose: 200.0 mg/kg/injection, schedule: Q01DX005 (ip), vehicle: saline",97 % of control
same,T/C,[4],93 % of control
same,T/C,"endpoint: mean survival time, dose: 200.0 mg/kg/injection, schedule: Q04DX002 (ip), vehicle: saline + alcohol",88 % of control
O=C(O)c1c2c(nc3ccccc13)-c1cccc3c1N(CCC3)C2,T/C,"endpoint: mean survival time, dose: 6.25 mg/kg/injection, schedule: Q01DX009 (ip), vehicle: other",100 % of control
same,T/C,"endpoint: mean survival time, dose: 12.5 mg/kg/injection, schedule: Q01DX009 (ip), vehicle: other",103 % of control
same,T/C,"endpoint: mean survival time, dose: 25.0 mg/kg/injection, schedule: Q01DX009 (ip), vehicle: other",103 % of control
same,T/C,"endpoint: mean survival time, dose: 50.0 mg/kg/injection, schedule: Q01DX009 (ip), vehicle: other",100 % of control
same,T/C,"endpoint: mean survival time, dose: 100.0 mg/kg/injection, schedule: Q01DX001 (ip), vehicle: other",100 % of control
same,T/C,"endpoint: mean survival time, dose: 200.0 mg/kg/injection, schedule: Q01DX001 (ip), vehicle: other",97 % of control
same,T/C,"endpoint: mean survival time, dose: 400.0 mg/kg/injection, schedule: Q01DX001 (ip), vehicle: other",97 % of control
CC(C)(Cl)S(=O)c1ccccc1 (stereo not given),T/C,[5],93 % of control
same,T/C,[6],93 % of control
same,T/C,[7],95 % of control
CN(C)N=Nc1ccc(S(=O)(=O)Nc2ncccn2)cc1,T/C,[1],120 % of control
same,T/C,[2],124 % of control
same,T/C,[5],113 % of control
same,T/C,[7],157 % of control
CC(C)=[C-]N(C)C.[C-]#[O+].[C-]#[O+].[C-]#[O+].[C-]#[O+].[C-]#[O+].[Mn],T/C,[8],110 % of control
same,T/C,[9],103 % of control
O=C1C=C(c2ccccc2)C(=O)C(c2ccccc2)=C1c1ccccc1,T/C,[10],94 % of control
same,T/C,[11],94 % of control
same,T/C,[12],90 % of control
SCCS,T/C,[2],105 % of control
same,T/C,[3],105 % of control
same,T/C,[4],94 % of control
same,T/C,[11],91 % of control
CC1=NN(c2ccccc2)C(=O)C1(Br)Br,T/C,[1],96 % of control
same,T/C,[2],98 % of control
CC(C)(C)c1ccc(OC(=S)c2ccccc2)cc1,T/C,[10],104 % of control
same,T/C,[11],89 % of control
same,T/C,[12],89 % of control
c1ccc2c3c(ccc2c1)CN1CCCCC1C3 (stereo not given),T/C,[2],102 % of control
same,T/C,[3],100 % of control
same,T/C,[4],104 % of control
Cc1ccc(NC(=O)/C=C/C(=O)O)cc1C,T/C,[2],95 % of control
same,T/C,[3],101 % of control
same,T/C,[4],105 % of control
CCCC(=O)C1=C(O)C(CC2=C(O)C(C)(C)C(=O)C(C(=O)CCC)=C2O)=C(O)C(C)(C)C1=O,T/C,"endpoint: mean survival time, dose: 100.0 mg/kg/injection, schedule: Q01DX001 (ip), vehicle: saline",98 % of control
same,T/C,"endpoint: mean survival time, dose: 200.0 mg/kg/injection, schedule: Q01DX001 (ip), vehicle: saline",101 % of control
CCN(CC)CCCNc1nccc2c(C)c3[nH]c4ccncc4c3cc12,T/C,"endpoint: median survival time, dose: 5.0 mg/kg/injection, schedule: Q01DX001 (ip), vehicle: other",124 % of control
same,T/C,"endpoint: median survival time, dose: 10.0 mg/kg/injection, schedule: Q01DX001 (ip), vehicle: other",157 % of control
same,T/C,"endpoint: median survival time, dose: 20.0 mg/kg/injection, schedule: Q01DX001 (ip), vehicle: other",175 % of control
N#C/C(=C/c1ccc(Cl)cc1)C(N)=O,T/C,"endpoint: mean survival time, dose: 12.5 mg/kg/injection, schedule: Q04DX003 (ip), vehicle: Klucel (hydroxypropylcellulose) (HPC)",96 % of control and 98 % of control
same,T/C,"endpoint: mean survival time, dose: 25.0 mg/kg/injection, schedule: Q04DX003 (ip), vehicle: Klucel (hydroxypropylcellulose) (HPC)",93 % of control and 95 % of control
same,T/C,"endpoint: mean survival time, dose: 50.0 mg/kg/injection, schedule: Q04DX003 (ip), vehicle: Klucel (hydroxypropylcellulose) (HPC)",100 % of control and 104 % of control
same,T/C,[13],121 % of control
same,T/C,"endpoint: mean survival time, dose: 100.0 mg/kg/injection, schedule: Q04DX003 (ip), vehicle: Klucel (hydroxypropylcellulose) (HPC)",100 % of control and 101 % of control
same,T/C,[14],111 % of control
same,T/C,[15],101 % of control
Cc1ccc(CCl)cc1,T/C,[2],115 % of control
same,T/C,[3],92 % of control
Cc1c2ccccc2cc2c1ccc1ccccc12,T/C,"endpoint: mean survival time, dose: 9.0 mg/kg/injection, schedule: Q01DX009 (ip), vehicle: saline with Tween-80",106 % of control
same,T/C,"endpoint: mean survival time, dose: 17.5 mg/kg/injection, schedule: Q01DX009 (ip), vehicle: saline with Tween-80",108 % of control
same,T/C,"endpoint: mean survival time, dose: 35.0 mg/kg/injection, schedule: Q01DX009 (ip), vehicle: saline with Tween-80",108 % of control
same,T/C,"endpoint: mean survival time, dose: 70.0 mg/kg/injection, schedule: Q01DX009 (ip), vehicle: saline with Tween-80",103 % of control
COc1ccc(-n2c(=S)[nH]c3ccc(C)cc3c2=O)cc1,T/C,[3],97 % of control
same,T/C,[4],100 % of control
same,T/C,[16],91 % of control
CCOC(=O)c1cnc(SCc2ccccc2)[nH]c1=O,T/C,[5],107 % of control
same,T/C,[6],110 % of control
same,T/C,[7],102 % of control
Cc1cc(NC(=O)CCc2ccc(N)cc2)ccc1S(=O)(=O)F,T/C,"endpoint: mean survival time, dose: 25.0 mg/kg/injection, schedule: Q01DX009 (ip), vehicle: Klucel (hydroxypropylcellulose) (HPC)",110 % of control
same,T/C,"endpoint: mean survival time, dose: 50.0 mg/kg/injection, schedule: Q01DX009 (ip), vehicle: Klucel (hydroxypropylcellulose) (HPC)",98 % of control
same,T/C,"endpoint: mean survival time, dose: 100.0 mg/kg/injection, schedule: Q01DX009 (ip), vehicle: Klucel (hydroxypropylcellulose) (HPC)",108 % of control
same,T/C,"endpoint: mean survival time, dose: 200.0 mg/kg/injection, schedule: Q01DX009 (ip), vehicle: Klucel (hydroxypropylcellulose) (HPC)",94 % of control and 106 % of control
CCOC(=O)C(OCc1ccccc1)(C(=O)N1CCCCCC1=O)C(C)C (stereo not given),T/C,[5],100 % of control
same,T/C,[6],105 % of control
same,T/C,[7],96 % of control
COc1cc2c(cc1O)CCCC=C2,T/C,[2],100 % of control
same,T/C,[3],96 % of control
same,T/C,[4],92 % of control
O=C(O)c1cc(Cl)nc(Cl)c1,T/C,[13],94 % of control
same,T/C,[14],97 % of control
same,T/C,[15],92 % of control
COc1cccc2c1C(=O)c1c(OC)c(CBr)cc(OC)c1C2=O,T/C,"endpoint: mean survival time, dose: 12.5 mg/kg/injection, schedule: Q01DX005 (ip), vehicle: other",96 % of control
same,T/C,"endpoint: mean survival time, dose: 25.0 mg/kg/injection, schedule: Q01DX005 (ip), vehicle: other",101 % of control
same,T/C,"endpoint: mean survival time, dose: 50.0 mg/kg/injection, schedule: Q01DX005 (ip), vehicle: other",96 % of control
same,T/C,"endpoint: mean survival time, dose: 100.0 mg/kg/injection, schedule: Q01DX005 (ip), vehicle: other",86 % of control
COC1=CC(=O)C=C(OC(C)=O)C12Oc1c(Cl)c(C)c(Cl)c(O)c1C2=O (stereo not given),T/C,"endpoint: mean survival time, dose: 6.25 mg/kg/injection, schedule: Q04DX002 (ip), vehicle: saline with Tween-80",105 % of control
same,T/C,[8],98 % of control
same,T/C,[9],102 % of control
Cc1cccc(Oc2ccc(C(F)(F)F)cc2[N+](=O)[O-])c1,T/C,[13],98 % of control
same,T/C,[14],90 % of control
same,T/C,[15],91 % of control
Brc1ccc(-c2nc3sc(-c4ccc(Br)cc4)nc3s2)cc1,T/C,[3],108 % of control
same,T/C,[4],104 % of control
same,T/C,[16],102 % of control
O=C1C=CN(C2OC(COC(=O)c3ccccc3)C(O)C2O)C(=O)C1 (stereo not given),T/C,"endpoint: median survival time, dose: 67.0 mg/kg/injection, schedule: Q01DX009 (ip), vehicle: saline + Tween-80 + alcohol",168 % of control
same,T/C,"endpoint: median survival time, dose: 100.0 mg/kg/injection, schedule: Q01DX009 (ip), vehicle: saline + Tween-80 + alcohol",169 % of control
same,T/C,"endpoint: median survival time, dose: 150.0 mg/kg/injection, schedule: Q01DX009 (ip), vehicle: saline + Tween-80 + alcohol",165 % of control
same,T/C,"endpoint: median survival time, dose: 225.0 mg/kg/injection, schedule: Q01DX009 (ip), vehicle: saline + Tween-80 + alcohol",161 % of control
COC(=O)C(=C(C)C)[N+](=O)[O-],T/C,[5],91 % of control
same,T/C,[6],95 % of control
same,T/C,[7],95 % of control
CCC(=O)NC1CCCCC1,T/C,[13],95 % of control
same,T/C,[14],101 % of control
same,T/C,[15],102 % of control
